# In patent publication US20210071180A1, “MICRORNA 584-5P COMPOSITIONS AND METHODS FOR TREATING CANCER” (BOARD OF REGENTS, THE UNIVERSY OF TEXAS SYSTEM, priority 2018, published 2021):
# Key:
# Assay type in all cases: cell-based
# [1] = tested on: c-Myc; assay: qPCR and Western blot of c-Myc; conditions: c-Myc-amplified MB cells
# Protocol: (§1) Immunofluorescence and Western blot analysis Immunofluorescence analyses was carried out on cells fixed in 4% paraformaldehyde (Imam, J. S. et al. PLoS One 7, e52397, (2012)). […]
# Because c-Myc supports cancer stem cell growth, promotes radioresistance (Gravina, G. L. et al. Radiat Res 185, 411-422, (2016)), and has elevated levels in VCR-resistant cancer cells (He, Y., Zhang, J., Zhang, J. & Yuan, Y. Chin Med J (Engl) 113, 848-851 (2000)), it was tested whether miR-584-5p and its target genes may regulate c-Myc-amplified MB growth and therapy sensitization by targeting c-Myc levels/functions. […] In FIG. 14D, the p-values were calculated using standard Student t-tests. […] To test that possibility, it was assessed whether miR-584-5p target genes may regulate c-Myc levels in MB. […] Cell viability was assessed using alamarBlue. The p-value was calculated using one-way ANOVA followed by Sidak's multiple-comparisons test. […]
# [2] = tested on: MB cells; assay: Immunofluorescence count of mitotic cells; conditions: vs scrambled-transfected cells
# Protocol: To gain more insight into the tumor-suppressing and VCR-sensitizing activities of miR-584-5p, it was determined how the miR-584-5p mimic affected cell cycle progression of MB cells. […] Bar graphs show DNA histograms quantified using the FlowJo software. In FIG. 9A, the p-values were determined by two-way ANOVA followed by Tukey's multiple-comparisons test. Error bars represent mean±SEM. […] In FIG. 9B, the p-values were calculated using standard Student t-tests. Error bars represent mean±SEM. […] Next, it was determined whether miR-584-5p's effect on cell cycle progression may be mediated via its target genes eIF4E3/HDAC1. […] Bar graphs show dot plots quantified using the FlowJo software. Next, it was tested whether miR-584-5p-induced cell cycle arrest led to apoptosis of MB cells. […] In FIG. 8C, the bar graphs reflect DNA histograms quantified using the FlowJo software and in FIG. 8D and FIG. 9C, the bar graphs show dot plots quantified using the FlowJo software. The p-values for panels 8A-D and FIG. 9C were determined by two-way ANOVA followed by Tukey's multiple-comparisons test. Error bars represent mean±SEM. ****, p<0.0001; ***, p<0.001; **, p<0.01; *, p<0.05.
# as §1
# [3] = tested on: 3′-UTR of HDAC1; assay: Dual luciferase 3′-UTR reporter assay (HDAC1); conditions: miR-584-5p mimic in comparison with scrambled
# Protocol: Dual luciferase assay. Wild-type or mutant 3′-UTR segments of the eIF4E3 and HDAC1 gene were cloned downstream of the luciferase gene in pGL3-promoter vector at the SacI and SpeI restriction sites. HEK293 cells were cotransfected with Renilla luciferase vector (pRLnull 380) and firefly luciferase vector containing pGL3-wt-eIF4E3; pGL3-mut-eIF4E3; or pGL3-wt-HDAC1, pGL3-mut-HDAC1, or pGL3 overnight and incubated in fresh complete medium for an additional 48 hours after transfection. Cells were then transfected with miRNA mimic (Invitrogen) for 24 hours. Next, cells were harvested with 1× passive lysis buffer (Promega) and luciferase activity was read using GLOMAX 20/20 luminometer (Promega).
# Data are z-transformed. The cutoff criteria for each gene are fold change >2, sample intensity >10, and p-value <0.05. […] To validate the gene expression analysis and target prediction results, it was determined whether miR-584-5p reduced HDAC1/eIF4E3 expression by binding to their 3′-untranslated regions (3′-UTRs). […] Also shown are the portion of the miR-584-5p sequence (SEQ ID NO: 15; UAUGGUU) that binds to the wild-type 3′UTR and seed sequence mutant (SEQ ID NO: 16; […], top panel; and SEQ ID NO: 17; […]; bottom panel). Also shown is miR-584-5p seed sequence mutated sequences. […] The p-values were calculated using standard Student t-tests. […] The p-values were calculated using standard Student t-tests.
substance,measurement,setting,value
miR-584-5p: microRNA mimic; nucleotide sequence UUAUGGUUUGCCUGGGACUGAG (SEQ ID NO: 1); purchased from Thermofisher (chemistry not given here),c-Myc levels,[1],significantly reduced expression of c-Myc
same,mitotic cells,[2],significantly more mitotic cells
same,"luciferase activity, HDAC1 3′-UTR with mutated miR-584-5p binding sites",[3],no change in luciferase activity
same,"luciferase activity, wild-type HDAC1 3′-UTR construct",[3],significantly reduced
